A short description of series [1]: Parallel artificial membrane permeability assay (PAMPA). It counts as in vitro ADME. To be noted: pH 7.4, read-out: PAMPA pH 7.4. Background: In PAMPA a lipid-coated filter parts donor from acceptor wells.
The nature of series [2]: Pharmacokinetics in female NSG mice. It counts as in vivo. To be noted: single IP 50 mg/kg. The method, then:
Drug concentrations in plasma and tissue samples were measured by a qualified UPLC-MS/MS method with a Waters Acquity I-Class UPLC interfaced with a Waters TQ-S mass spectrometer. The lower limit of quantitation (LLOQ) was 1 ng/mL for plasma and 1 ng/g tissue for liver, kidney, lung and brain. PK parameters were calculated using the non-compartmental method of the pharmacokinetic software package Phoenix WinNonlin, version 6.2 (Certara, St. Louis, MO). The area under the plasma concentration versus time curve (AUC) was calculated using the linear trapezoidal method. […] The apparent terminal half-life (t1/2) was calculated as 0.693/λ.
In vitro ADME properties of targeted degraders 3 and 7 were studied with the standard Tier I assays, i.e. kinetic solubility assay, parallel artificial membrane permeability assay (PAMPA) and rat liver microsomal (RLM) stability assay (Sun et al., Bioorg Med Chem 2019, 27(14):3110-4; Sun et al., Bioorg Med Chem 2017, 25(3):1266-76; Shah et al., Drug Metab Dispos 2016, 44(10):1653-61). The pharmacokinetics (PK) of targeted degraders 3 and 7 were determined in female NSG mice (The Jackson Laboratory; body weight range from 17-25 grams) after a single intraperitoneal injection of 50 mg/kg. […]

A short description of another series: Kinetic solubility assay. It counts as physicochemical. The conditions noted are these: kinetic from dmso stock.
In the next series the target is T1, LZK^Q240S (Homo sapiens, UniProt O43283, Q240S).
T1 construct: FLAG (transient 293T overexpression vector); expressed in transfected cells
T1 sequence (O43283 1-966 Q240S): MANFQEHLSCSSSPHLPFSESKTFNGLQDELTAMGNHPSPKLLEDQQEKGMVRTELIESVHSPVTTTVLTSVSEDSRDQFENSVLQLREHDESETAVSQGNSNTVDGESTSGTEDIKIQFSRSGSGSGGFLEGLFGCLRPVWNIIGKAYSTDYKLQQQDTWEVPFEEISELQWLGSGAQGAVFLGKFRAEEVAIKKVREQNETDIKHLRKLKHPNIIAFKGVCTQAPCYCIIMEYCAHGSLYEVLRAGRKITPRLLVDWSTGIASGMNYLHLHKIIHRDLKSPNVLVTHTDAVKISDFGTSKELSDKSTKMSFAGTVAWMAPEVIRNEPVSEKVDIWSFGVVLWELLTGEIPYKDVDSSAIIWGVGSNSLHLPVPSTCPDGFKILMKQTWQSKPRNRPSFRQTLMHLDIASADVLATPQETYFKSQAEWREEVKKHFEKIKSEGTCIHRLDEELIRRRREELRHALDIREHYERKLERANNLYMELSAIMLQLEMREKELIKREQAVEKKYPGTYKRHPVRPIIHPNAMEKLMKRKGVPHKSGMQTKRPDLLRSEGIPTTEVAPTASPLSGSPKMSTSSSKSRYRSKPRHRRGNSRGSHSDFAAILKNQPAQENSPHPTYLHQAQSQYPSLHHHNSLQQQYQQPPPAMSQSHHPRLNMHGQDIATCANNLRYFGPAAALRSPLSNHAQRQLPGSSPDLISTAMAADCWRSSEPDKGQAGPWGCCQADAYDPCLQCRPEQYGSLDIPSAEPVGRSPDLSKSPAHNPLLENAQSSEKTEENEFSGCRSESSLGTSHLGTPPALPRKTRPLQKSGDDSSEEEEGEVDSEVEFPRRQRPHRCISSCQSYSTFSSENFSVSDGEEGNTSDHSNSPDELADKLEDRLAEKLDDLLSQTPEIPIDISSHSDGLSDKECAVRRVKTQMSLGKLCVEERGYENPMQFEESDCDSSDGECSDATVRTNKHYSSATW
In words: JNK signaling with drug-resistant mutant LZK Q240S. The series is classed as cell-based. To be noted: drug-resistant mutant expression. The protocol:
The ViraPower HiPerform T-REx Gateway Expression System (Invitrogen) was used to generate cells with tetracycline-inducible expression of LZK. […] Cell lines were generated by antibiotic selection (blasticidin [Gibco] and geneticin [Gibco]). Doxycycline (Sigma-Aldrich) was used at 1 μg/mL to induce LZK expression.
Protein concentrations were determined from the cell lysate by using 660 nm Protein Assay Reagent (Pierce).

Molecules are shown by their SMILES.

A word on the solubility: it is the concentration that dissolves in the medium under given conditions. Read a high solubility as a readily soluble substance. Turning to `Cc1ncsc1-c1ccc([C@H](C)NC(=O)[C@@H]2C[C@@H](O)CN2C(=O)[C@@H](NC(=O)CCCCCCC(=O)N2CCC(c3cc(Nc4cc(C#N)ccn4)nc(N4CCC(F)(F)C4)c3)CC2)C(C)(C)C)cc1` [Compound 3], in series [1], the Papp was below 1 ×10⁻⁶ cm/s. In addition, the “tissue distribution and drug characteristics” value in series [2] is “variable tissue distribution and overall promising drug characteristics”. This molecule also registered a solubility in “Kinetic solubility assay” below 1 µg/mL.
With `CC(=O)N1CCC(c2cc(Nc3cc(C#N)ccn3)nc(N3CCC(F)(F)C3)c2)CC1` [LZK inhibitor 2], the “JNK signaling / catalytic activity of LZK Q240S in presence of inhibitor” value on LZK^Q240S was “rescued JNK signaling”.
